Results as given in patent US8735322B2, “Herbicides” (Syngenta Limited, priority 2008, dated 2014).

Key:
Assay type in all cases: in vivo
[1] = system: Alopecurus myosuroides (ALOMY); test: Example B pre-emergence herbicidal activity, glasshouse pot test; details: 312 h, rate 1000 g/ha, evaluated after 13 days, read-out: herbicidal damage ALOMY (100=total damage to plant; 0=no damage to plant)
Description: (§1) Seeds of a variety of test species were sown in standard soil in pots. After cultivation for one day (pre-emergence) or after 8 days cultivation (post-emergence) under controlled conditions in a glasshouse (at 24/16° C., day/night; 14 hours light; 65% humidity), the plants were sprayed with an aqueous spray solution derived from the formulation of the technical active ingredient in acetone/water (50:50) solution containing 0.5% Tween 20 (polyoxyethelyene sorbitan monolaurate, CAS RN 9005-64-5). The test plants were then grown in a glasshouse under controlled conditions in a glasshouse (at 24/16° C., day/night; 14 hours light; 65% humidity) and watered twice daily. After 13 days for pre and post-emergence, the test was evaluated (100=total damage to plant; 0=no damage to plant). Alopecurus myosuroides (ALOMY), Avena fatua (AVEFA), Setaria faberi (SETFA), Echinochloa crus-galli (ECHCG), Solanum nigrum (SOLNI) and Amaranthus retroflexus (AMARE) Pre-Emergence Activity

[2] = system: Amaranthus retroflexus (AMARE); test: as above; details: 312 h, rate 1000 g/ha, evaluated after 13 days, read-out: herbicidal damage AMARE (100=total damage to plant; 0=no damage to plant)
Description: as §1

Avena fatua (AVEFA) [3] = test: as above; details: 312 h, rate 1000 g/ha, evaluated after 13 days, read-out: herbicidal damage AVEFA (100=total damage to plant; 0=no damage to plant)
Description: as §1

[4] = system: Echinochloa crus-galli (ECHCG); test: as above; details: 312 h, rate 1000 g/ha, evaluated after 13 days, read-out: herbicidal damage ECHCG (100=total damage to plant; 0=no damage to plant)
Description: as §1

Setaria faberi (SETFA) [5] = test: as above; details: 312 h, rate 1000 g/ha, evaluated after 13 days, read-out: herbicidal damage SETFA (100=total damage to plant; 0=no damage to plant)
Description: as §1

Solanum nigrum (SOLNI) [6] = test: as above; details: 312 h, rate 1000 g/ha, evaluated after 13 days, read-out: herbicidal damage SOLNI (100=total damage to plant; 0=no damage to plant)
Description: as §1

[7] = system: Alopecurus myosuroides (ALOMY); test: Example B post-emergence herbicidal activity, glasshouse pot test; details: 312 h, rate 1000 g/ha, evaluated after 13 days, read-out: herbicidal damage ALOMY (100=total damage to plant; 0=no damage to plant)
Description: as §1, with “Post-Emergence” for “Pre-Emergence”

[8] = system: Amaranthus retroflexus (AMARE); test: as above; details: 312 h, rate 1000 g/ha, evaluated after 13 days, read-out: herbicidal damage AMARE (100=total damage to plant; 0=no damage to plant)
Description: as §1, with “Post-Emergence” for “Pre-Emergence”

Avena fatua (AVEFA) [9] = test: as above; details: 312 h, rate 1000 g/ha, evaluated after 13 days, read-out: herbicidal damage AVEFA (100=total damage to plant; 0=no damage to plant)
Description: as §1, with “Post-Emergence” for “Pre-Emergence”

[10] = system: Echinochloa crus-galli (ECHCG); test: as above; details: 312 h, rate 1000 g/ha, evaluated after 13 days, read-out: herbicidal damage ECHCG (100=total damage to plant; 0=no damage to plant)
Description: as §1, with “Post-Emergence” for “Pre-Emergence”

Setaria faberi (SETFA) [11] = test: as above; details: 312 h, rate 1000 g/ha, evaluated after 13 days, read-out: herbicidal damage SETFA (100=total damage to plant; 0=no damage to plant)
Description: as §1, with “Post-Emergence” for “Pre-Emergence”

Solanum nigrum (SOLNI) [12] = test: as above; details: 312 h, rate 1000 g/ha, evaluated after 13 days, read-out: herbicidal damage SOLNI (100=total damage to plant; 0=no damage to plant)
Description: as §1, with “Post-Emergence” for “Pre-Emergence”

| Structure (SMILES) | pest or weed control at 1000 g/ha [1] [%] | pest or weed control at 1000 g/ha [2] [%] | pest or weed control at 1000 g/ha (Avena fatua (AVEFA) [3]) [%] | pest or weed control at 1000 g/ha [4] [%] | pest or weed control at 1000 g/ha (Setaria faberi (SETFA) [5]) [%] | pest or weed control at 1000 g/ha (Solanum nigrum (SOLNI) [6]) [%] | pest or weed control at 1000 g/ha [7] [%] | pest or weed control at 1000 g/ha [8] [%] | pest or weed control at 1000 g/ha (Avena fatua (AVEFA) [9]) [%] | pest or weed control at 1000 g/ha [10] [%] | pest or weed control at 1000 g/ha (Setaria faberi (SETFA) [11]) [%] | pest or weed control at 1000 g/ha (Solanum nigrum (SOLNI) [12]) [%] |
| --- | --- | --- | --- | --- | --- | --- | --- | --- | --- | --- | --- | --- |
| Cc1ccc(-c2ccc3c(c2)OCO3)cc1C1=C(O)CC(CC2CCOCC2)CC1=O (stereo not drawn) [Compound A-53] | 0 | 0 | 0 | 0 | 0 | 0 | 50 | 0 | 50 | 70 | 60 | 0 |
| Cc1ccc(-c2ccc3c(c2)OCCO3)cc1C1=C(O)CC(CC2CCOCC2)CC1=O (stereo not drawn) [Compound A-54] | 60 | 0 | 10 | 0 | 0 | 0 | 0 | 0 | 0 | 70 | 0 | 0 |
| Cc1ccc(-c2ccc(Cl)cc2)cc1C1=C(O)CC(CC2OCCCO2)CC1=O (stereo not drawn) [Compound A-55, 2-(4′-Chloro-4-methylbiphenyl-3-yl)-5-[1,3]dioxan-2-ylmethylcyclohexane-1,3-dione] | 0 | 0 | 20 | 60 | 60 | 0 | 90 | 0 | 90 | 100 | 100 | 0 |
| Cc1ccc(-c2ccc(Cl)cc2)cc1C1=C(O)CC(CC2OCC(C)(C)CO2)CC1=O (stereo not drawn) [Compound A-56] | 20 | 0 | 0 | 0 | 70 | 0 | 80 | 0 | 0 | 100 | 90 | 0 |
| CCC1(CC)COC(CC2CC(=O)C(c3cc(-c4ccc(Cl)cc4)ccc3C)=C(O)C2)OC1 (stereo not drawn) [Compound A-57] | 40 | 0 | 0 | 0 | 90 | 0 | 70 | 0 | 20 | 90 | 90 | 0 |
| Cc1ccc(-c2ccc(Cl)cc2)cc1C1=C(O)CC(CC2OCC3(CCOCC3)O2)CC1=O (stereo not drawn) [Compound A-58] | 20 | 0 | 0 | 60 | 30 | 0 | 60 | 0 | 40 | 90 | 90 | 0 |
| Cc1ccc(-c2ccc(Cl)cc2)cc1C1=C(O)CC(CC2OCC(C3CCOCC3)O2)CC1=O (stereo not drawn) [Compound A-59] | 20 | 0 | 0 | 0 | 60 | 0 | 70 | 0 | 20 | 90 | 90 | 0 |
| Cc1ccc(-c2ccc(Cl)cc2)cc1C1=C(O)CC(CC2OCC(CC3CCOCC3)O2)CC1=O (stereo not drawn) [Compound A-60] | 0 | 0 | 0 | 30 | 30 | 0 | 60 | 0 | 10 | 90 | 90 | 0 |
| Cc1ccc(-c2ccc(Cl)cc2)cc1C1=C(O)CC(CC2O[C@H]3COC[C@H]3O2)CC1=O (stereo partly drawn) [Compound A-61] | 0 | 0 | 0 | 20 | 30 | 0 | 90 | 0 | 80 | 100 | 100 | 0 |
| Cc1ccc(-c2ccc(Cl)cc2)cc1C1=C(O)CC(CC2OCCCCO2)CC1=O (stereo not drawn) [Compound A-62] | 20 | 0 | 0 | 50 | 60 | 0 | 90 | 0 | 80 | 100 | 100 | 0 |
| COCC1COC(CC2CC(=O)C(c3cc(-c4ccc(Cl)cc4)ccc3C)=C(O)C2)O1 (stereo not drawn) [Compound A-63] | 0 | 20 | 0 | 20 | 70 | 0 | 90 | 0 | 90 | 100 | 100 | 0 |
| Cc1ccc(-c2ccc(Cl)cc2)cc1C1=C(O)CC(CC2OCC(C)CO2)CC1=O (stereo not drawn) [Compound A-64] | 0 | 0 | 0 | 50 | 50 | 0 | 80 | 0 | 80 | 100 | 100 | 0 |
| Cc1ccc(-c2ccc(Cl)cc2)cc1C1=C(O)CC(CC2OCC3(CC3)CO2)CC1=O (stereo not drawn) [Compound A-65] | 20 | 30 | 0 | 70 | 60 | 20 | 40 | 90 | 20 | 70 | 70 | 60 |
